From patent US20250179103A1, “6-OXODECAHYDROPYRROLO[1,2-A][1,5]DIAZOCINE AND 6-OXODECAHYDRO-4H-PYRROLO[2,1-D][1,5]THIAZOCINE DERIVATIVES AS STAT3 AND STAT6 MODULATORS FOR THE TREATMENT OF CANCER AND INFLAMMATORY CONDITIONS” (Recludix Pharma, Inc., priority 2022, published 2025) come the findings set out here.

Assay [1] has as its target T1, Recombinant STAT3 protein (STAT3(G127-I722)) (Homo sapiens, UniProt P40763).
T1 construct: Recombinant STAT3 protein (STAT3(G127-I722))
Put plainly: STAT3 Fluorescence Polarization (FP) Assay. It counts as binding. As to conditions: STAT3(G127-I722) 25 nM, probe 5-FAM-GpYLPQTV-NH2 2 nM, 45-minute incubation. The method, boiled down: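 STAT3(G127-I722), 25 nM, was mixed with 2 nM 5-FAM-GpYLPQTV-NH2 probe in HEPES pH 7.4 buffer with 1% DMSO and serially diluted compound. FP (mP) was read after 45 min at room temperature. IC50 came from nonlinear regression.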

Assay [2] addresses T2, Recombinant STAT6 protein (STAT6(W123-T658)) (Homo sapiens, UniProt P42226).
T2 construct: Recombinant STAT6 protein (STAT6(W123-T658))
T2 sequence (P42226 123-658): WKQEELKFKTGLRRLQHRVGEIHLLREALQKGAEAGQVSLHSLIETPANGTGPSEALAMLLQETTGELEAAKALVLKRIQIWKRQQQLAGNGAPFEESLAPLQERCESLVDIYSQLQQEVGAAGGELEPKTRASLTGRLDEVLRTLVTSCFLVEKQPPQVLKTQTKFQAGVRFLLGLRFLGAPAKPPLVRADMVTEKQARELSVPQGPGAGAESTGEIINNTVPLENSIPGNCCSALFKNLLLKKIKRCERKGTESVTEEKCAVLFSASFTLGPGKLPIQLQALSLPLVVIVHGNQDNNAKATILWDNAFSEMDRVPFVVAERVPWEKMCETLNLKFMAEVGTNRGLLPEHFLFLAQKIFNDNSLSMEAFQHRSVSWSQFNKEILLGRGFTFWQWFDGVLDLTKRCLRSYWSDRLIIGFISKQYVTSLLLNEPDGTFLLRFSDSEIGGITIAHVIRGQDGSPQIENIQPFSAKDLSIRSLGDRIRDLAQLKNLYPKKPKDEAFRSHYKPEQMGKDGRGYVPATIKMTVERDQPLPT
Put plainly: STAT6 Fluorescence Polarization (FP) Assay. Format: binding. The note with it: STAT6(W123-T658) 250 nM, probe 5-FAM-ApYKPFQDLI-NH2 2 nM, 45-minute incubation. The method, boiled down:
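Displacement of a fluorescent phosphotyrosine peptide (5-FAM-ApYKPFQDLI-NH2, 2 nM) from STAT6(W123-T658) (250 nM), 1% DMSO, pH 7.4 HEPES buffer. After 45 min at room temperature, polarization (mP) was plotted versus log compound concentration and fitted by nonlinear regression to give IC50.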
For orientation: Polarisation of emitted light reports the rotation of a fluorescent probe.

T1 sequence (P40763 127-722): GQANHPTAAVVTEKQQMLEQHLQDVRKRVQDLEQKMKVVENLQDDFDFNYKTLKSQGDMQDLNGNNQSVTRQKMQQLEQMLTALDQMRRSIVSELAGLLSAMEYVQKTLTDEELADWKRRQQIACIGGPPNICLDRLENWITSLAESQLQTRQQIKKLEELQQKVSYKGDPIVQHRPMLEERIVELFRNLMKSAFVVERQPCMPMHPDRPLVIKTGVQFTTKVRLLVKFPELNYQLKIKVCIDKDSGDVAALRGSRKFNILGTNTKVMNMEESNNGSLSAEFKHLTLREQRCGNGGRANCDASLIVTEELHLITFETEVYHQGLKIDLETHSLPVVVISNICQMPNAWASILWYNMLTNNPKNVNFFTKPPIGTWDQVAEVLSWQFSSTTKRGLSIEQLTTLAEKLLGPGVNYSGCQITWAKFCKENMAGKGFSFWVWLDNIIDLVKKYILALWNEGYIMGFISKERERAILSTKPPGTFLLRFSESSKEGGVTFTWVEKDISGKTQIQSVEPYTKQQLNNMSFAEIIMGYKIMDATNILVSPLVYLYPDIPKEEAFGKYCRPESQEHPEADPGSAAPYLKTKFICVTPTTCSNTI

Regarding `CC(=O)N1CC[C@H]2CC[C@@H](C(=O)N3CCC3Cc3ccccc3)N2C(=O)[C@@H](NC(=O)c2cc3cc(C(F)(F)P(=O)(O)O)ccc3[nH]2)C1` (stereo partly drawn) [Compound 104, ((2-(((5S,8S,10aR)-3-acetyl-8-(2-benzylazetidine-1-carbonyl)-6-oxodecahydropyrrolo[1,2-a][1,5]diazocin-5-yl)carbamoyl)-1H-indol-5-yl)difluoromethyl)phosphonic acid], the IC50 (commonly the concentration needed to halve the response being measured) in assay [1] was in the range of 1000 to 10000 nM; in assay [2], 300 to 3000 nM.

On to `CN1CCN(c2ccccc2CN2CC[C@H]3CC[C@@H](C(=O)N4CC(c5cccnc5)C4)N3C(=O)[C@@H](NC(=O)c3cc4cc(C(F)(F)P(=O)(O)O)ccc4s3)C2)CC1` [Compound 274, (difluoro(2-(((5S,8S,10aR)-3-(2-(4-methylpiperazin-1-yl)benzyl)-6-oxo-8-(3-(pyridin-3-yl)azetidine-1-carbonyl)decahydropyrrolo[1,2-a][1,5]diazocin-5-yl)carbamoyl)benzo[b]thiophen-5-yl)methyl)phosphonic acid], for which the values for the IC50 in assay [1] and in assay [2] were ≤ 100 nM and 3000 to 30000 nM, respectively.

For the molecule `COc1ccccc1C1CN(C(=O)[C@@H]2CC[C@@H]3CCN(C(C)=O)C[C@H](NC(=O)c4cc5cc(C(F)(F)P(=O)(O)O)ccc5s4)C(=O)N32)C[C@@H]1C#N` (relative stereo) [Compound 144, ((2-(((5S,8S,10aR)-3-acetyl-8-((rel-trans)-3-cyano-4-(2-methoxyphenyl)pyrrolidine-1-carbonyl)-6-oxodecahydropyrrolo[1,2-a][1,5]diazocin-5-yl)carbamoyl)benzo[b]thiophen-5-yl)difluoromethyl)phosphonic acid], the values for the IC50 in assay [1] and in assay [2] were 1000 to 10000 nM and ≤ 300 nM, respectively.

For `CC(=O)N1CC[C@H]2CC[C@@H](C(=O)N(C)c3ccc(C(C)(C)C)c(Cl)c3)N2C(=O)[C@@H](NC(=O)c2cc3cc(C(F)(F)P(=O)(O)O)ccc3s2)C1` [Compound 160, ((2-(((5S,8S,10aR)-3-acetyl-8-((4-(tert-butyl)-3-chlorophenyl)(methyl)carbamoyl)-6-oxodecahydropyrrolo[1,2-a][1,5]diazocin-5-yl)carbamoyl)benzo[b]thiophen-5-yl)difluoromethyl)phosphonic acid], the IC50 in assay [1] is 1000 to 10000 nM; in assay [2] it was 300 to 3000 nM.

With `CC(=O)N1CC[C@H](NC(=O)c2cc3cc(C(F)(F)P(=O)(O)O)ccc3s2)C(=O)N2[C@H](CC[C@H]2C(=O)N2CC(c3cccnc3)C2)C1` [Compound 40, ((2-(((5S,8S,10aR)-2-acetyl-6-oxo-8-(3-(pyridin-3-yl)azetidine-1-carbonyl)decahydropyrrolo[1,2-a][1,4]diazocin-5-yl)carbamoyl)benzo[b]thiophen-5-yl)difluoromethyl)phosphonic acid], the IC50 in assay [1] was ≤ 100 nM; in assay [2], 3000 to 30000 nM.

For the molecule `CC(=O)N1CC[C@H]2CC[C@@H](C(=O)Nc3ccc4nnccc4c3)N2C(=O)[C@@H](NC(=O)c2ccc3ccc(C(F)(F)P(=O)(O)O)cc3c2)C1` [Compound 199, ((7-(((5S,8S,10aR)-3-acetyl-8-(cinnolin-6-ylcarbamoyl)-6-oxodecahydropyrrolo[1,2-a][1,5]diazocin-5-yl)carbamoyl)naphthalen-2-yl)difluoromethyl)phosphonic acid], the IC50 in assay [1] fell in the range of 1000 to 10000 nM; in assay [2], 300 to 3000 nM.

With `Cc1ccc2onc(C(=O)N3CC[C@H]4CC[C@@H](C(=O)N5C[C@H](c6ccn(C)c(=O)c6)CC56CC6)N4C(=O)[C@@H](NC(=O)c4ccc5ccc(C(F)(F)P(=O)(O)O)cc5c4)C3)c2c1` [Compound 382, (difluoro(7-(((5S,8S, 10aR)-8-((S)-6-(1-methyl-2-oxo-1,2-dihydropyridin-4-yl)-4-azaspiro[2.4]heptane-4-carbonyl)-3-(5-methylbenzo[d]isoxazole-3-carbonyl)-6-oxodecahydropyrrolo [1,2-a][1,5]diazocin-5-yl)carbamoyl)naphthalen-2-yl)methyl)phosphonic acid], the IC50 in assay [1] is 1000 to 10000 nM; in assay [2], ≤ 300 nM.

`CC(=O)N1CC[C@H]2CC[C@@H](C(=O)N(C)C3CCN(S(C)(=O)=O)CC3)N2C(=O)[C@@H](NC(=O)c2cc3cc(C(F)(F)P(=O)(O)O)ccc3s2)C1` [Compound 93, ((2-(((5S,8S,10aR)-3-acetyl-8-(methyl(1-(methylsulfonyl)piperidin-4-yl)carbamoyl)-6-oxodecahydropyrrolo[1,2-a][1,5]diazocin-5-yl)carbamoyl)benzo[b]thiophen-5-yl)difluoromethyl)phosphonic acid]: the figures for the IC50 in assay [1] and in assay [2] were 1000 to 10000 nM and 300 to 3000 nM, respectively.

`Cc1ccc2onc(C(=O)N3CC[C@H]4CC[C@@H](C(=O)N5CCOCC5)N4C(=O)[C@@H](NC(=O)c4ccc5c(F)cc(CP(=O)(O)O)cc5c4)C3)c2c1` [Compound 379, ((4-fluoro-7-(((5S,8S, 10aR)-3-(5-methylbenzo[d]isoxazole-3-carbonyl)-8-(morpholine-4-carbonyl)-6-oxodecahydropyrrolo [1,2-a][1,5]diazocin-5-yl)carbamoyl)naphthalen-2-yl)methyl)phosphonic acid]: the IC50 in assay [1] is > 10000 nM; in assay [2], 300 to 3000 nM.

`CC(=O)N1CC[C@H]2CC[C@@H](C(=O)N3CC[C@@H](c4ccccc4)C3)N2C(=O)[C@@H](NC(=O)c2cc3cc(C(F)(F)P(=O)(O)O)ccc3s2)C1` [Compound 97, ((2-(((5S,8S,10aR)-3-acetyl-6-oxo-8-((S)-3-phenylpyrrolidine-1-carbonyl)decahydropyrrolo[1,2-a][1,5]diazocin-5-yl)carbamoyl)benzo[b]thiophen-5-yl)difluoromethyl)phosphonic acid]: the results for the IC50 in assay [1] and in assay [2] were 100 to 1000 nM and ≤ 300 nM, respectively.

As to `COC(=O)N1CC[C@H]2CC[C@@H](C(=O)N3CCCC3)N2C(=O)[C@@H](NC(=O)c2cc3cc(C(F)(F)P(=O)(O)O)ccc3s2)C1` [Compound 262, (difluoro(2-(((5S,8S,10aR)-3-(methoxycarbonyl)-6-oxo-8-(pyrrolidine-1-carbonyl)decahydropyrrolo[1,2-a][1,5]diazocin-5-yl)carbamoyl)benzo[b]thiophen-5-yl)methyl)phosphonic acid], the results for the IC50 in assay [1] and in assay [2] were 1000 to 10000 nM and 300 to 3000 nM, respectively.

In the case of `O=C(N[C@H]1CN(C(=O)c2noc3ccc(Cl)cc23)CC[C@H]2CC[C@@H](C(=O)N3CCOCC3)N2C1=O)c1ccc2ccc(C(F)P(=O)(O)O)cc2c1` (stereo partly drawn) [Compound 365, ((7-(((5S,8S,10aR)-3-(5-chlorobenzo[d]isoxazole-3-carbonyl)-8-(morpholine-4-carbonyl)-6-oxodecahydro-pyrrolo[1,2-a][1,5]diazocin-5-yl)carbamoyl)naphthalen-2-yl)fluoromethyl) phosphonic acid], the IC50 in assay [1] is > 10000 nM; in assay [2] it was ≤ 300 nM.

Regarding `CC(=O)N1CC[C@H]2CC[C@@H](C(=O)N(C)c3ccccc3)N2C(=O)[C@@H](NC(=O)c2cc3cc(C(C#N)P(=O)(O)O)ccc3s2)C1` (stereo partly drawn) [Compound 16, ((2-(((5S,8S,10aR)-3-acetyl-8-(methyl(phenyl)carbamoyl)-6-oxodecahydropyrrolo[1,2-a][1,5]diazocin-5-yl)carbamoyl)benzo[b]thiophen-5-yl)(cyano)methyl)phosphonic acid], the IC50 in assay [1] is > 10000 nM; in assay [2], > 30000 nM.
